Results reported in patent publication US20210153502A1, “PLANT GROWTH AID AND PLANT GROWING METHOD” (priority 2018, published 2021).

Columns and labels:
[1] = octanol/water, 25° C.; cited from earlier work
[2] = tested on: PR1 protein; experiment: Evaluation of disease resistance: PR1 protein content of sprayed leaf by western blotting, tomato; format: in vivo; conditions: seedling sheet Z-1, band density relative to thiazinyl solution of same period
Experimental: (§1) The results are shown in the rows of “cultivation in paddy field” of Table 3 (rice) and Table 4 (tomato).
(§2) A 1/5000-are pot was filled with 2.9 kg of paddy field soil (clay loam). Ten young seedlings having 2 to 3 leaves grown by the above method were planted in a depth of 2 cm and watered, and the seedlings were placed in water at a depth of 3 cm. The seedlings were left to stand at 25° C. for a predetermined period shown in Table 3 or Table 4 (days (day) from moving to paddy field until evaluation). Each leaf sprayed with the nanoparticle (P) dispersion (or thiazinyl solution) was cut off, immersed in ion exchange water in a container for one minute, and taken out from the container. The liquid in the container was replaced by fresh ion exchange water. The leaf was further subjected to an operation of immersing in the fresh ion exchange water in the container for one minute and taking out of the container three times, whereby the nanoparticles (P) (or thiazinyl) attached to the leaf surface were removed. Then, proteins were extracted from the above leaf using 8-min Plant Tissue Total Protein Extraction Kit (available from Cosmo Bio Co., Ltd.), and the PR1 protein content, which is a marker of disease resistance, in the extracted proteins was determined as follows. The total protein content was quantified with Micro BCATM protein assay kit (available from THERMO Fisher Scientific). […]
(§3) The test was performed five times for each seedling. The PR1 protein content was evaluated by western blotting (including electrophoresis, transferring, and color development) specifically described later. […]
(§4) After a PR1 protein band was detected in the transferring membrane after the operations (1) to (3), the density of the band was quantified with Image J (available from National Institutes of Health, USA). In Examples 11 to 14, the quantified density of the band in each of Examples 11 to 14 was divided by the density of the band in Comparative Example 3. […]

[3] = tested on: Hinohikari (rice); experiment: Aerial part growing ratio after treatment with nanoparticles (P) or thiazinyl, rice; format: in vivo; conditions: seedling sheet Z-1, relative to thiazinyl solution of same period
Experimental: as §1
(§5) Young seedlings were treated with the nanoparticles (P) or thiazinyl in the same manner as in the method described in the <Evaluation of disease resistance>, and the aerial part growing state was evaluated after a predetermined period (shown in Tables 3 and 4, days (day) from moving to the paddy field until evaluation). Specifically, the aerial part growing state was evaluated by measuring the length of each part. The aerial part length in each example treated with the nanoparticles (P) for a predetermined period was divided by the aerial part length in the comparative example treated with a thiazinyl solution for the same period. The calculated value was regarded as the aerial part growing ratio.

[4] = tested on: House Momotaro (tomato); experiment: Aerial part growing ratio after treatment with nanoparticles (P) or thiazinyl, tomato; format: in vivo; conditions: seedling sheet Z-1, relative to thiazinyl solution of same period
Experimental: as §1, §5

[5] = tested on: PR1 protein; experiment: Evaluation of disease resistance: PR1 protein content of sprayed leaf by western blotting, rice; format: in vivo; conditions: seedling sheet Z-1, band density relative to thiazinyl solution of same period
Experimental: as §1, §2, §3, §4

[6] = tested on: House Momotaro (tomato); experiment: Evaluation of crop injury after treatment with nanoparticles (P) or thiazinyl, tomato; format: in vivo; parameters: key: 0: Harmless (healthy); 1: minimally damaged; 2: slightly damaged; 3: moderately damaged; 4: significantly damaged; 5: complete leaf firing; conditions: seedling sheet Z-1, 100 μL spray, thiazinyl 100 ppm
Experimental: as §1
(§6) Young seedlings were treated with the nanoparticles (P) or thiazinyl in the same manner as in the method described in <Evaluation of disease resistance>. Then, the degree of crop injury on the leaf surface was evaluated after a predetermined period of time (days (day) shown in Tables 3 and 4, from moving to the paddy field until evaluation). Specifically, crop injury was visually evaluated with the naked eye according to the following criteria.

[7] = tested on: Hinohikari (rice); experiment: Evaluation of crop injury after treatment with nanoparticles (P) or thiazinyl, rice; format: in vivo; parameters: key: 0: Harmless (healthy); 1: minimally damaged; 2: slightly damaged; 3: moderately damaged; 4: significantly damaged; 5: complete leaf firing; conditions: seedling sheet Z-1, 100 μL spray, thiazinyl 100 ppm
Experimental: as §1, §6

[8] = 1 day from moving to paddy field
[9] = 3 days from moving to paddy field
[10] = 7 days from moving to paddy field

Compound	Log Pow [1]	also measured
Cc1c(F)c(F)c(COC(=O)[C@@H]2[C@H](/C=C(\Cl)C(F)(F)F)C2(C)C)c(F)c1F (racemic) [tefluthrin]	6.5	–
N#Cc1c(Cl)c(Cl)c(Cl)c(C#N)c1Cl [TPN, chlorothalonil]	2.92	–
CSC(=O)c1cccc2nnsc12 [acibenzolar-S-methyl]	3.1	–
CC1(C)[C@H](C(=O)O[C@H](C#N)c2cccc(Oc3ccccc3)c2)[C@@H]1/C=C\C(=O)OC(C(F)(F)F)C(F)(F)F [acrinathrin]	5.25	–
O=C1C2CC=CCC2C(=O)N1SC(Cl)(Cl)Cl (centres unmarked) [captan]	2.8	–
CCOP(=S)(OCC)Oc1cc(C)nc(C(C)C)n1 [diazinon]	3.3	–
CCOc1ccc(NC(=O)OC(C)C)cc1OCC [diethofencarb]	3.02	–
N#CC(CCc1ccc(Cl)cc1)(Cn1cncn1)c1ccccc1 (centres unmarked) [fenbuconazole]	3.23	–
COP(=S)(OC)Oc1ccc([N+](=O)[O-])c(C)c1 [fenitrothion]	3.43	–
C/C(=N/Nc1nc(C)cc(C)n1)c1ccccc1C [ferimzone]	2.89	–
O=C(NC(=O)c1c(F)cccc1F)Nc1ccc(Cl)c(Oc2ncc(C(F)(F)F)cc2Cl)c1 [fluazuron]	5.1	–
O=[N+]([O-])c1ccc(NS(=O)(=O)c2ccc(Cl)c(C(F)(F)F)c2)c(Cl)c1 [flusulfamide]	2.8	–
CC(C)Oc1cccc(NC(=O)c2ccccc2C(F)(F)F)c1 [flutolanil]	3.17	–
CC(C)[C@H](Nc1ccc(C(F)(F)F)cc1Cl)C(=O)OC(C#N)c1cccc(Oc2ccccc2)c1 (some centres unmarked) [fluvalinate]	2.9	–
CCOP(=O)(SC(C)CC)N1CCSC1=O (centres unmarked) [fosthiazate]	1.68	–
O=C1OCc2c(Cl)c(Cl)c(Cl)c(Cl)c21 [fthalide]	3.01	–

Compound	Log Pow [1]	also measured
Cc1nn(C)c(Cl)c1C(=O)Nc1cccc2c1C(C)OC2(C)C (centres unmarked) [furametpyr]	2.36	–
O=C(NC(=O)c1c(F)cccc1F)Nc1cc(Cl)c(OC(F)(F)C(F)F)c(Cl)c1 [hexaflumuron]	4.68	–
CC(C)OP(=O)(OC(C)C)SCc1ccccc1 [iprobenfos]	3.37	–
N#Cc1ccccc1NC(=O)c1snc(Cl)c1Cl [isotianil]	2.96	–
O=C(NC(=O)c1c(F)cccc1F)Nc1cc(Cl)c(OC(F)(F)C(F)C(F)(F)F)cc1Cl (centres unmarked) [lufenuron]	5.12	–
COCC(=O)N(c1c(C)cccc1C)C(C)C(=O)OC (centres unmarked) [metalaxyl]	1.75	–
COc1nn(CSP(=S)(OC)OC)c(=O)s1 [methidathion]	2.2	–
CCCCC(C#N)(Cn1cncn1)c1ccc(Cl)cc1 (centres unmarked) [myclobutanil]	2.9	–
C=CCCCOC(=O)C(CC)N(Cc1ccco1)C(=O)n1ccnc1 (centres unmarked) [pefurazoate]	3.0	–
CCCSP(=O)(OCC)Oc1cnn(-c2ccc(Cl)cc2)c1 (centres unmarked) [pyraclofos]	3.77	–
O=C1CCc2cccc3c2N1CC3 [pyroquilone]	1.42	–
Cc1ccc(NC(=O)c2snnc2C)cc1Cl [thiazinyl]	3.68	PR1 protein mass ratio ([2]; 1 day): 1.0; PR1 protein mass ratio ([2]; 3 days): 1.0; PR1 protein mass ratio ([2]; 7 days): 1.0; Aerial part growth ratio ([3]; 1 day): 1.0; Aerial part growth ratio ([3]; 3 days): 1.0; Aerial part growth ratio ([3]; 7 days): 1.0; Aerial part growth ratio ([4]; 1 day): 1.0; Aerial part growth ratio ([4]; 3 days): 1.0; Aerial part growth ratio ([4]; 7 days): 1.0; PR1 protein mass ratio ([5]; 1 day): 1.0; PR1 protein mass ratio ([5]; 3 days): 1.0; PR1 protein mass ratio ([5]; 7 days): 1.0; Crop injury [6, 8]: 2; Crop injury [6, 9]: 3; Crop injury [6, 10]: 3; Crop injury [7, 8]: 3; Crop injury [7, 9]: 4; Crop injury [7, 10]: 4
COC(=O)c1c(C(F)F)nc(C(F)(F)F)c(C2=NCCS2)c1CC(C)C [thiazopyr]	3.89	–
CS/C(C)=N\OC(=O)N(C)SN(C)C(=O)O/N=C(\C)SC [thiodicarb]	1.62	–
COC(=O)NC(=S)Nc1ccccc1NC(=S)NC(=O)OC [thiophanate-methyl]	1.5	–
CN(C)C(=S)SSC(=S)N(C)C [thiuram]	1.73	–
